Test results taken from patent publication EP1799816B1, “NOVEL LACCASE ENZYME AND USE THEREOF” (AB Enzymes Oy, priority 2004, dated 2006).
Like-named read-outs stand apart in the source and are kept apart here.

What was measured:
[1] = molecular target: T1, Melanocarpus albomyces laccase MaL (Melanocarpus albomyces, UniProt Q70KY3); assay: Kinetic parameters (Km, kcat, kcat/Km) on laccase substrates; format: biochemical; conditions: substrate ABTS; 25 mM succinate buffer, pH 4.5, 25°C; comparison enzyme
T1 sequence (Q70KY3 51-609): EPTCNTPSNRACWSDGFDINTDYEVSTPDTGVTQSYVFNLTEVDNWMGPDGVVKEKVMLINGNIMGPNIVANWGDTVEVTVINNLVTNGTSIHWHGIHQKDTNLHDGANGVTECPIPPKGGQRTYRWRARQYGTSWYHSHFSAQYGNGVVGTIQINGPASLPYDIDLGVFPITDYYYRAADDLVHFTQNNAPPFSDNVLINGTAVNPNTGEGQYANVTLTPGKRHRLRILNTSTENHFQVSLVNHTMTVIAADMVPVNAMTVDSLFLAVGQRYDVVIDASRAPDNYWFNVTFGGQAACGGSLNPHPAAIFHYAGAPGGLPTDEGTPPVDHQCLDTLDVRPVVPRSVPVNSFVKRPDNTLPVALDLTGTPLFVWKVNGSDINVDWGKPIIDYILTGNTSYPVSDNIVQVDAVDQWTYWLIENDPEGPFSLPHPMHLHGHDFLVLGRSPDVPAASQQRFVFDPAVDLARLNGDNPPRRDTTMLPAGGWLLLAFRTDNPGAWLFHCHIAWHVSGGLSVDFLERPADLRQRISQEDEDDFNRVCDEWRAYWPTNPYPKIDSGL
Description: (§1) On syringaldazin and DMP 40 mM MES buffer, pH 6 and 25 mM succinate bluffer, All activity assays were carried out at 25°C. Kinetic parameters were estimated by a nonlinear regression curve fit. The values were compared to those of Melanocarpus albomyces MaL, laccase.

[2] = molecular target: T2, recombinant Thielavia arenaria TaLcc1 laccase (rTaLcc1) expressed in Trichoderma reesei, SEQ ID NO: 12 (Canariomyces arenarius, UniProt F6N9E7); format: biochemical
T2 sequence (F6N9E7 22-604): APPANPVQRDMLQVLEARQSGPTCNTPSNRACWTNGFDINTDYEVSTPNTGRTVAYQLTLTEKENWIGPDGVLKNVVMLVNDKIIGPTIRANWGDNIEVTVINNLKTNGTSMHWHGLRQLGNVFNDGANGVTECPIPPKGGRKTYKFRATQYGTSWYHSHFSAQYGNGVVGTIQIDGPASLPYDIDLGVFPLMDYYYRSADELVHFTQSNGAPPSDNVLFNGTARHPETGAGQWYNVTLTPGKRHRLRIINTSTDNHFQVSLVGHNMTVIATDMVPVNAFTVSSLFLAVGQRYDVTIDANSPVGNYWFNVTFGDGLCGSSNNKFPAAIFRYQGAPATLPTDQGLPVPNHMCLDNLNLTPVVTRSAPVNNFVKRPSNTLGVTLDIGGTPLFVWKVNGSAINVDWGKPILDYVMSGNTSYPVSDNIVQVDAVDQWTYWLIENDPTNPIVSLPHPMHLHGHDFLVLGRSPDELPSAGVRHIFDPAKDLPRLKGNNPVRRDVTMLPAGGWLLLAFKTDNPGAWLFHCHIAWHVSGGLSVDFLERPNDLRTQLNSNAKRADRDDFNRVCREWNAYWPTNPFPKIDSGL
Description: as §1

Compound | Km [1] | kcat [1] | kcat ([2]; substrate ABTS, 25 mM succinate buffer, pH 4.5, 25°C) | kcat ([2]; substrate Syringaldazin, 25°C, buffer unclear (40 mM MES buffer, pH 6 / 25 mM succinate buffer))
CCn1c(=NN=c2sc3cc(S(=O)(=O)O)ccc3n2CC)sc2cc(S(=O)(=O)O)ccc21 [ABTS, 2,2'azinobis-3-ethylbenzthiazole-6-sulphonate] | 270 µM | 78.17 s⁻¹ | 68.83 s⁻¹ | –
COc1cc(C=NN=Cc2cc(OC)c(O)c(OC)c2)cc(OC)c1O [Syringaldazin, syringaldazine] | – | – | – | 32.33 s⁻¹
